From BindingDB's records for doi:10.1021/jm049161u (Pfizer, 2006)
pKi: −log10 of the molar value.

What follows are compounds tested against Peptidyl-prolyl cis-trans isomerase FKBP1A (Bos taurus, UniProt P18203) (assay: Peptidyl Prolyl Isomerase (PPIase) Inibition Assay). Conditions: not given.
Method: (§1) It is based on the observation that chymotrypsin cleaves the C-terminal amide bond only in the trans conformer of the chromogenic substrate. The rapid hydrolysis perturbs the cis-trans conformational equilibrium, which allows one to monitor the PPIase-catalyzed cis-to-trans isomerization. […] Rate constants were generated from the absorbance versus time plots at 8-12 compound concentrations. The Kiapp was determined from the corrected rate constants using an IC50 equation or a tight-binding equation by Morrison.

Sequence of Peptidyl-prolyl cis-trans isomerase FKBP1A (Bos taurus, UniProt P18203) (P18203 whole entry): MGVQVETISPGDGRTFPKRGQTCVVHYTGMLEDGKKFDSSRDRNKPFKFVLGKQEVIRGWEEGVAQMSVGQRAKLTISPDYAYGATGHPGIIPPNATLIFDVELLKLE

| SMILES | pKi |
| --- | --- |
| COc1cc2c(c(OC)c1)C1C3CCCC(C(=O)N1CC2)N3C(=O)Nc1ccc([N+](=O)[O-])cc1 (configuration not stated) [4,6-dimethoxy-N-(4-nitrophenyl)-12-oxo-11,17-diazatetracyclo[11.3.1.0^{2,11}.0^{3,8}]heptadeca-3(8),4,6-triene-17-carboxamide] | 6.11 |
| COc1cc(OC)cc(N2C=C3C4CCCC(C(=O)N3CC2=O)N4C(=O)C(=O)c2cc(OC)c(OC)c(OC)c2)c1 (configuration not stated) [4-(3,5-dimethoxyphenyl)-13-[2-oxo-2-(3,4,5-trimethoxyphenyl)acetyl]-4,7,13-triazatricyclo[7.3.1.0^{2,7}]tridec-2-ene-5,8-dione] | 7.27 |
| COc1cc2c(c(OC)c1)C1C3CCCC(C(=O)N1CC2)N3C(=O)Nc1ccccc1OC (configuration not stated) [4,6-dimethoxy-N-(2-methoxyphenyl)-12-oxo-11,17-diazatetracyclo[11.3.1.0^{2,11}.0^{3,8}]heptadeca-3(8),4,6-triene-17-carboxamide] | 6.45 |
| COc1cc2c(c(OC)c1)C1C3CCCC(C(=O)N1CC2)N3C(=O)Nc1ccccc1 (configuration not stated) [4,6-dimethoxy-12-oxo-N-phenyl-11,17-diazatetracyclo[11.3.1.0^{2,11}.0^{3,8}]heptadeca-3(8),4,6-triene-17-carboxamide] | 5.57 |

Continued, values first:

| pKi | SMILES |
| --- | --- |
| 5.15 | COc1cc2c(c(OC)c1)C1C3CCCC(C(=O)N1CC2)N3C(=O)Nc1ccc(F)cc1F (configuration not stated) [N-(2,4-difluorophenyl)-4,6-dimethoxy-12-oxo-11,17-diazatetracyclo[11.3.1.0^{2,11}.0^{3,8}]heptadeca-3(8),4,6-triene-17-carboxamide] |
| 6.48 | COc1cc2c(c(OC)c1)C1C3CCCC(C(=O)N1CC2)N3C(=O)Nc1ccccc1C (configuration not stated) [4,6-dimethoxy-N-(2-methylphenyl)-12-oxo-11,17-diazatetracyclo[11.3.1.0^{2,11}.0^{3,8}]heptadeca-3(8),4,6-triene-17-carboxamide] |

What follows are compounds tested against Peptidyl-prolyl cis-trans isomerase FKBP1A (Homo sapiens, UniProt P62942) (assay: Peptidyl Prolyl Isomerase (PPIase) Inibition Assay). Conditions: pH 8; 15 °C.
Sequence of Peptidyl-prolyl cis-trans isomerase FKBP1A (Homo sapiens, UniProt P62942) (P62942 whole entry): as the sequence (P18203 whole entry) above, with V50M, N95H, I99V counted along it
Method: as §1

| pKi | SMILES |
| --- | --- |
| 5.09 | COc1cc2c(c(OC)c1)C1C3CCCC(C(=O)N1CC2)N3C(=O)C(=O)c1cc(Cl)ccc1Cl (configuration not stated) [1-(2,5-dichlorophenyl)-2-{4,6-dimethoxy-12-oxo-11,17-diazatetracyclo[11.3.1.0^{2,11}.0^{3,8}]heptadeca-3(8),4,6-trien-17-yl}ethane-1,2-dione] |
